Values after ≈ are worked out from the molar mass of the structure shown. Active and inactive are the calls of the source. No cut-off for these calls is given here. Peptide text beside a SMILES is read from it. A value given as a limit tells only on which side of the number the result lay.

For data set [1], the system named is Rattus norvegicus. Description: Toxicity in Wistar rat infected with methicillin-susceptible Staphylococcus aureus Smith diffuse assessed as mortality administered as solution by soaking of graft after 7 days. The class given is organism-based. To be noted: in vivo, other, 168 h.
In data set [2] the test system is Staphylococcus aureus. Description: Antimicrobial activity against methicillin-susceptible Staphylococcus aureus Smith diffuse infected in Wistar rat assessed as reduction in infection administered as solution by soaking of graft after 7 days relative to control. Format: functional, organism-based.
The test system of data set [3] is Rattus norvegicus. Nature of the data set: Toxicity in Wistar rat infected with methicillin-susceptible Staphylococcus aureus Smith diffuse assessed as anorexia administered as solution by soaking of graft after 7 days. The class given is organism-based. To be noted: in vivo, other, 168 h.
Data set [4] relates to Rattus norvegicus. Nature of the data set: Toxicity in Wistar rat infected with methicillin-susceptible Staphylococcus aureus Smith diffuse assessed as vomiting administered as solution by soaking of graft after 7 days. Format: organism-based. Conditions: in vivo, other, 168 h.
The subject of data set [5] is Rattus norvegicus. Description: Toxicity in Wistar rat infected with methicillin-susceptible Staphylococcus aureus Smith diffuse assessed as behavioral alterations administered as solution by soaking of graft after 7 days. The class given is organism-based. Conditions: in vivo, other, 168 h.
Data set [6] has as its system Staphylococcus aureus. Nature of the data set: Antimicrobial activity against methicillin-susceptible Staphylococcus aureus Smith diffuse assessed as inhibition of biofilm formation by cell-based microbroth dilution method. The class given is functional. On the technique in general: Broth dilution looks for growth in wells or tubes with falling amounts of substance.

Data set [7] deals with Rattus norvegicus. Description: Toxicity in Wistar rat infected with methicillin-susceptible Staphylococcus aureus Smith diffuse assessed as perigraft inflammation administered as solution by soaking of graft after 7 days. Format: organism-based. To be noted: in vivo, other, 168 h.
Data set [8] deals with Rattus norvegicus. Nature of the data set: Toxicity in Wistar rat infected with methicillin-susceptible Staphylococcus aureus Smith diffuse assessed as diarrhea administered as solution by soaking of graft after 7 days. To be noted: in vivo, other, 168 h. Format: organism-based.
Data set [9] relates to Rattus norvegicus. Nature of the data set: Toxicity in Wistar rat infected with methicillin-susceptible Staphylococcus aureus Smith diffuse assessed as diarrhea at 7 mg/kg administered as solution by soaking of graft after 7 days. The class given is organism-based. Also on record: dose 7 mg/kg. To be noted: in vivo, other, 168 h.
Data set [10] has as its system Rattus norvegicus. Description: Toxicity in Wistar rat infected with methicillin-susceptible Staphylococcus aureus Smith diffuse assessed as mortality at 7 mg/kg administered as solution by soaking of graft after 7 days. Format: organism-based. Also on record: dose 7 mg/kg. Conditions: in vivo, other, 168 h.
Data set [11] relates to Rattus norvegicus. Description: Toxicity in Wistar rat infected with methicillin-susceptible Staphylococcus aureus Smith diffuse assessed as anorexia at 7 mg/kg administered as solution by soaking of graft after 7 days. The class given is organism-based. Also on record: dose 7 mg/kg. To be noted: in vivo, other, 168 h.
Data set [12] deals with Rattus norvegicus. Nature of the data set: Toxicity in Wistar rat infected with methicillin-susceptible Staphylococcus aureus Smith diffuse assessed as perigraft inflammation at 7 mg/kg administered as solution by soaking of graft after 7 days. Conditions: in vivo, other, 168 h. Also on record: dose 7 mg/kg. Format: organism-based.
Data set [13] has as its system Rattus norvegicus. Description: Toxicity in Wistar rat infected with methicillin-susceptible Staphylococcus aureus Smith diffuse assessed as vomiting at 7 mg/kg administered as solution by soaking of graft after 7 days. Also on record: dose 7 mg/kg. To be noted: in vivo, other, 168 h. Format: organism-based.
The test system of data set [14] is Rattus norvegicus. Description: Toxicity in Wistar rat infected with methicillin-susceptible Staphylococcus aureus Smith diffuse assessed as behavioral alterations at 7 mg/kg administered as solution by soaking of graft after 7 days. Format: organism-based. Also on record: dose 7 mg/kg. Conditions: in vivo, other, 168 h.

Consider `C[C@@H](O)[C@H](NC(=O)[C@H](Cc1c[nH]c2ccccc12)NC(=O)[C@@H]1CCCN1)C(=O)N[C@@H](CC(N)=O)C(N)=O` (H-PWTN-NH2), for which the Activity result in data set [1], in [3], in data set [4], in [5], in data set [7] and in data set [8] was “Non-toxic” each time. Further, the outcome in data set [2] was Active. Also, the MIC in data set [6] is above 128 µg/mL.
Consider H-YSPWTNA-NH2, for which the Activity result in data set [1], in [3], in data set [4], in data set [5], in [7] and in data set [8] was “Non-toxic” each time. In data set [2], the outcome was Active. Besides, in data set [6], the MIC was above 128 µg/mL.
For the compound H-YAPWTNF-NH2, the Activity entry in data set [1], in data set [3], in data set [4], in [5], in data set [7] and in data set [8] was “Non-toxic” each time. The outcome in data set [2] was Active. Also, the MIC in data set [6] was above 128 µg/mL.
In the case of H-YSAWTNF-NH2, the Activity entry in data set [1], in data set [3], in data set [4], in data set [5], in data set [7] and in [8] was “Non-toxic” each time. For the same compound, the result in data set [2] was Active. For the same compound, in [6], the MIC is above 128 µg/mL.
H-YSPWANF-NH2: the Activity entry in data set [1], in data set [3], in data set [4], in data set [5], in data set [7] and in data set [8] was “Non-toxic” in each case. The result in data set [2] was Active. Also, in data set [6], the MIC was above 128 µg/mL.
Turning to H-YSPWTNF-NH2, the result in [2] was Active.
With H-ASPWTNF-NH2, the Activity result in data set [1], in [3], in data set [4], in data set [5], in data set [7] and in [8] was “Non-toxic” in each case. Also, the outcome in data set [2] was Active. Also, the MIC in data set [6] is above 128 µg/mL.
H-YSPATNF-NH2: the Activity result in data set [1], in [3], in data set [4], in data set [5], in [7] and in data set [8] was “Non-toxic” throughout. In addition, the outcome in data set [2] was Active. Further, the MIC in [6] is above 128 µg/mL.
Turning to `CCCCCCCCCC(=O)N[C@@H](Cc1c[nH]c2ccccc12)C(=O)N[C@H](CC(N)=O)C(=O)N[C@@H](CC(=O)O)C(=O)N[C@@H]1C(=O)NCC(=O)N[C@@H](CCCN)C(=O)N[C@@H](CC(=O)O)C(=O)N[C@H](C)C(=O)N[C@@H](CC(=O)O)C(=O)NCC(=O)N[C@H](CO)C(=O)N[C@@H]([C@H](C)CC(=O)O)C(=O)N[C@@H](CC(=O)c2ccccc2N)C(=O)O[C@@H]1C`, the Activity entry in data set [9], in [10], in [11], in data set [12], in [13] and in data set [14] was “Non-toxic” in each case. In [6], the MIC is 4 µg/mL (≈ 2.47 µM).
Turning to `NC(=O)[C@H](Cc1c[nH]c2ccccc12)NC(=O)[C@@H]1CCCN1C(=O)[C@H](CO)NC(=O)[C@@H](N)Cc1ccc(O)cc1` (H-YSPW-NH2), the Activity entry in data set [1], in [3], in data set [4], in data set [5], in [7] and in data set [8] was “Non-toxic” throughout. Moreover, the result in [2] was Active. Besides, the MIC in data set [6] was above 128 µg/mL.
As for H-YSPWTAF-NH2, the Activity result in data set [1], in data set [3], in data set [4], in data set [5], in data set [7] and in data set [8] was “Non-toxic” each time. In data set [2], the outcome was Active. The MIC in data set [6] is above 128 µg/mL.
As to `C[C@@H](O)[C@H](NC(=O)[C@H](Cc1c[nH]c2ccccc12)NC(=O)[C@@H]1CCCN1C(=O)[C@@H](N)CO)C(N)=O` (H-SPWT-NH2), the Activity result in [1], in [3], in [4], in data set [5], in data set [7] and in data set [8] was “Non-toxic” throughout. Moreover, in data set [2], the result was Active. Further, the MIC in [6] is above 128 µg/mL.
For `C[C@@H](O)[C@H](NC(=O)[C@@H](N)Cc1c[nH]c2ccccc12)C(=O)N[C@@H](CC(N)=O)C(=O)N[C@@H](Cc1ccccc1)C(N)=O` (H-WTNF-NH2), the Activity entry in data set [1], in data set [3], in [4], in data set [5], in [7] and in data set [8] was “Non-toxic” in each case. The result in data set [2] was Active. For the same compound, the MIC in data set [6] was above 128 µg/mL.

These data come from ChEMBL document CHEMBL3132765, “Discovery of novel RIP derivatives by alanine scanning for the treatment of S. aureus infections” (Medchemcomm, 2013).
